{"source": "patent US7432400B2", "about": "“Biphenylene compounds” (Ciba Specialty Chemicals Corp., priority 2001, dated 2008)", "note": "Where “and” joins values, the source holds several entries; their conditions need not be identical. Identical values can stand only once.", "data": [{"experiment": "UV absorption (λmax) of the biphenyl compounds as UV filters", "format": "physicochemical", "conditions": "measured in acetonitrile 98/water 2", "text": "By way of example, the following Table lists a number of biphenyl compounds according to the invention together with their λmax values (measured in acetonitrile 98/water 2).", "units": {"λmax [nm]": "nm"}, "values": [{"compound": "CC(C)(C)C1CCC(=O)/C(=C/c2ccc(-c3ccc(/C=C4\\CC(C(C)(C)C)CCC4=O)cc3)cc2)C1", "note": "(centres unmarked) [Example 1]", "λmax [nm]": 357}, {"compound": "O=C1/C(=C/c2ccc(-c3ccc(/C=C4\\CCc5ccccc5C4=O)cc3)cc2)CCc2ccccc21", "note": "[Example 2]", "λmax [nm]": 351}, {"compound": "COc1ccc2c(c1)CC/C(=C\\c1ccc(-c3ccc(/C=C4\\CCc5cc(OC)ccc5C4=O)cc3)cc1)C2=O", "note": "[Example 3]", "λmax [nm]": 351}, {"compound": "CCCCCCC1CC/C(=C\\c2ccc(-c3ccc(/C=C4\\CCC(CCCCCC)C4=O)cc3)cc2)C1=O", "note": "(centres unmarked) [Example 4]", "λmax [nm]": 282}, {"compound": "O=C(/C=C/c1ccc(-c2ccc(/C=C/C(=O)c3ccc(F)cc3)cc2)cc1)c1ccc(F)cc1", "note": "[Example 5]", "λmax [nm]": 358}, {"compound": "O=C1CCCCC/C1=C\\c1ccc(-c2ccc(/C=C3\\CCCCCC3=O)cc2)cc1", "note": "[Example 6]", "λmax [nm]": 337}, {"compound": "O=C1CCCCCC/C1=C\\c1ccc(-c2ccc(/C=C3\\CCCCCCC3=O)cc2)cc1", "note": "[Example 7]", "λmax [nm]": 315}, {"compound": "C/C(=C\\c1ccc(-c2ccc(/C=C(\\C)C(=O)c3ccccc3)cc2)cc1)C(=O)c1ccccc1", "note": "[Example 8]", "λmax [nm]": 326}, {"compound": "O=C(/C(=C/c1ccc(-c2ccc(/C=C(/C(=O)c3ccccc3)c3ccccc3)cc2)cc1)c1ccccc1)c1ccccc1", "note": "[Example 9]", "λmax [nm]": 326}, {"compound": "O=C1OCCCC/C1=C\\c1ccc(-c2ccc(/C=C3\\CCCCOC3=O)cc2)cc1", "note": "[Example 10]", "λmax [nm]": 361}, {"compound": "CC(=O)/C(=C\\c1ccc(-c2ccc(/C=C(\\C(C)=O)C(=O)OC(C)(C)C)cc2)cc1)C(=O)OC(C)(C)C", "note": "[Example 11]", "λmax [nm]": 345}]}, {"experiment": "UV absorption (λmax) of the biphenyl compounds as UV filters", "format": "physicochemical", "conditions": "in DMSO", "units": {"λmax (DMSO)": "nm"}, "values": [{"compound": "O=C1NC(=O)C(=Cc2ccc(-c3ccc(C=C4C(=O)NC(=O)NC4=O)cc3)cc2)C(=O)N1", "note": "[Example 15]", "λmax (DMSO)": 396}]}, {"experiment": "UV absorption (λmax) of the biphenyl compounds as UV filters", "format": "physicochemical", "conditions": "in DMSO, at λmax 396 nm", "values": [{"compound": "O=C1NC(=O)C(=Cc2ccc(-c3ccc(C=C4C(=O)NC(=O)NC4=O)cc3)cc2)C(=O)N1", "note": "[Example 15]", "E (1%, 1 cm)": 1134}]}, {"experiment": "UV absorption (λmax) of the biphenyl compounds as UV filters", "format": "physicochemical", "conditions": "in dioxane", "values": [{"compound": "O=C1/C(=C/c2ccc(-c3ccc(/C=C4/C(=O)C5CCN4CC5)cc3)cc2)N2CCC1CC2", "note": "[Example 13]", "λmax (dioxane)": "235 nm and 350 nm"}]}]}
